In ChEMBL document CHEMBL3259753, “Synthesis, structure-activity relationships and biological evaluation of dehydroandrographolide and andrographolide derivatives as novel anti-hepatitis B virus agents” (Bioorg Med Chem Lett, 2014):

Tests used:
[1] = Cytotoxicity against human HepG2.2.15 cells by MTT assay; format: cell-based, HepG2 2.2.15
[2] = Selectivity index, ratio of CC50 for human HepG2.2.15 cells to IC50 for HBV infected in human HepG2.2.15 cells assessed as inhibition of DNA replication; format: functional
Hepatitis B virus [3] = experiment: Antiviral activity against HBV infected in human HepG2.2.15 cells assessed as inhibition of hepatitis B surface antigen secretion by ELISA; format: functional, organism-based; details: HepG2 2.2.15
Hepatitis B virus [4] = experiment: Antiviral activity against HBV infected in human HepG2.2.15 cells assessed as inhibition of DNA replication; format: functional, organism-based; details: HepG2 2.2.15
[5] = Selectivity index, ratio of CC50 for human HepG2.2.15 cells to IC50 for HBV infected in human HepG2.2.15 cells assessed as inhibition of hepatitis B surface antigen secretion; format: functional
Hepatitis B virus [6] = experiment: Antiviral activity against HBV infected in human HepG2.2.15 cells assessed as inhibition of hepatitis B e antigen secretion by ELISA; format: functional, organism-based; details: HepG2 2.2.15
[7] = Selectivity index, ratio of CC50 for human HepG2.2.15 cells to IC50 for HBV infected in human HepG2.2.15 cells assessed as inhibition of hepatitis B e antigen secretion; format: functional

## C=C1CC[C@@H]2[C@](C)(CO)[C@H](OC(=O)c3cccnc3)CC[C@@]2(C)[C@@H]1C/C=C1\C=COC1=O
[1]
  CC50: 337 µM
[2]
  Ratio CC50/IC50: 8.8
Hepatitis B virus [3]
  IC50: 261 µM
Hepatitis B virus [4]
  IC50: 38.4 µM
[5]
  Ratio CC50/IC50: 1.3
Hepatitis B virus [6]
  IC50: 714 µM

## C=C1CC[C@H]2[C@@](C)(CCC(=O)[C@@]2(C)C=O)[C@@H]1C/C=C1\C=COC1=O
[1]
  CC50: 964 µM
[2]
  Ratio CC50/IC50: 5.7
Hepatitis B virus [3]
  IC50: 518 µM
Hepatitis B virus [4]
  IC50: 169 µM
[5]
  Ratio CC50/IC50: 1.9

## C=C1CC[C@@H]2[C@](C)(COC(C)=O)[C@H](OC(C)=O)CC[C@@]2(C)[C@@H]1/C=C/C1=CCOC1=O
[1]
  CC50: 757 µM
Hepatitis B virus [3]
  IC50: 1010 µM
Hepatitis B virus [4]
  IC50: 455 µM
Hepatitis B virus [6]
  IC50: 1390 µM

## C=C1CC[C@@H]2[C@](C)(CO)[C@H](OC(=O)CCCC)CC[C@@]2(C)[C@@H]1C/C=C1\C=COC1=O
[1]
  CC50: 126 µM
[2]
  Ratio CC50/IC50: 1.82
Hepatitis B virus [3]
  IC50: 625 µM
Hepatitis B virus [4]
  IC50: 69.8 µM
Hepatitis B virus [6]
  IC50: 208 µM

## C=C1CC[C@@H]2[C@](C)(COC(=O)c3ccco3)[C@H](OC(=O)c3ccco3)CC[C@@]2(C)[C@@H]1/C=C/C1=CCOC1=O
[1]
  CC50: 1110 µM
[2]
  Ratio CC50/IC50: 4.6
Hepatitis B virus [3]
  IC50: 1410 µM
Hepatitis B virus [4]
  IC50: 242 µM
Hepatitis B virus [6]
  IC50: 1860 µM

## C=C1CC[C@H]2[C@@](C)(CCC(=O)[C@@]2(C)C=O)[C@@H]1/C=C/C1=CCOC1=O
[1]
  CC50: 275 µM
[2]
  Ratio CC50/IC50: 1.1
Hepatitis B virus [3]
  IC50: 394 µM
Hepatitis B virus [4]
  IC50: 263 µM

## C=C1CC[C@@H]2[C@](C)(COC(=O)/C=C/c3cccc(OC)c3)[C@H](O)CC[C@@]2(C)[C@@H]1/C=C/C1=CCOC1=O
[1]
  CC50: > 1970 µM
Hepatitis B virus [3]
  IC50: > 1970 µM
Hepatitis B virus [4]
  IC50: > 513 µM
Hepatitis B virus [6]
  IC50: 1480 µM

## C=C1CC[C@@H]2[C@](C)(COC(=O)/C=C/c3ccccc3)[C@H](O)CC[C@@]2(C)[C@@H]1C/C=C1\C=COC1=O
[1]
  CC50: 271 µM
[2]
  Ratio CC50/IC50: 5.8
Hepatitis B virus [3]
  IC50: 210 µM
Hepatitis B virus [4]
  IC50: 46.6 µM
Hepatitis B virus [6]
  IC50: 516 µM

## C=C1CC[C@@H]2[C@](C)(CO)[C@H](O)CC[C@@]2(C)[C@@H]1/C=C/C1=CC(C(C)(C)O)OC1=O (some centres not stated)
[1]
  CC50: 122 µM
Hepatitis B virus [4]
  IC50: 394 µM
Hepatitis B virus [6]
  IC50: 562 µM

## C=C1CC[C@H]2[C@@](C)(CCC(=O)[C@@]2(C)C=O)[C@@H]1C/C=C1/C(=O)OC[C@H]1O
[1]
  CC50: 155 µM
[2]
  Ratio CC50/IC50: 3
Hepatitis B virus [3]
  IC50: 951 µM
Hepatitis B virus [4]
  IC50: 51.3 µM
Hepatitis B virus [6]
  IC50: 815 µM

## C=C1CC[C@@H]2[C@](C)(COC(=O)c3ccccc3)[C@H](O)CC[C@@]2(C)[C@@H]1C/C=C1\C=COC1=O
[1]
  CC50: 82 µM
[2]
  Ratio CC50/IC50: 4
Hepatitis B virus [3]
  IC50: 880 µM
Hepatitis B virus [4]
  IC50: 20.6 µM
Hepatitis B virus [6]
  IC50: 123 µM

## C=C1CC[C@@H]2[C@](C)(CO)[C@H](OC(=O)/C=C/c3cc(OC)c(OC)c(OC)c3)CC[C@@]2(C)[C@@H]1C/C=C1\C=COC1=O
[1]
  CC50: 211 µM
[2]
  Ratio CC50/IC50: 3
Hepatitis B virus [3]
  IC50: 753 µM
Hepatitis B virus [4]
  IC50: 53.1 µM
Hepatitis B virus [6]
  IC50: 518 µM

## C=C1CC[C@@H]2[C@](C)(COC(=O)CCCC)[C@H](OC(=O)CCCC)CC[C@@]2(C)[C@@H]1C/C=C1\C=COC1=O
[1]
  CC50: 757 µM
Hepatitis B virus [3]
  IC50: 1010 µM
Hepatitis B virus [4]
  IC50: 455 µM
Hepatitis B virus [6]
  IC50: 1390 µM

## C=C1CC[C@@H]2[C@](C)(COC(=O)/C=C/c3cc(OC)c(OC)c(OC)c3)[C@H](OC(=O)/C=C/c3cc(OC)c(OC)c(OC)c3)CC[C@@]2(C)[C@@H]1C/C=C1\C=COC1=O
[1]
  CC50: > 1830 µM
Hepatitis B virus [3]
  IC50: > 1830 µM
Hepatitis B virus [4]
  IC50: > 458 µM
Hepatitis B virus [6]
  IC50: > 253 µM

## C=C1CC[C@@H]2[C@](C)(CO)[C@H](O)CC[C@@]2(C)[C@@H]1C/C=C(/C(=O)O)[C@H](O)CO
[1]
  CC50: 182 µM
[2]
  Ratio CC50/IC50: 7.8
Hepatitis B virus [4]
  IC50: 23.2 µM

## C=C1CC[C@@H]2[C@](C)(COC(=O)CCCC)[C@H](O)CC[C@@]2(C)[C@@H]1C/C=C1\C=COC1=O
[1]
  CC50: 225 µM
[2]
  Ratio CC50/IC50: 3.2
Hepatitis B virus [3]
  IC50: 565 µM
Hepatitis B virus [4]
  IC50: 69.5 µM
Hepatitis B virus [6]
  IC50: 2230 µM

## C=C1CC[C@@H]2[C@](C)(CO)[C@H](OC(=O)/C=C/c3ccccc3)CC[C@@]2(C)[C@@H]1C/C=C1\C=COC1=O
[1]
  CC50: 179 µM
[2]
  Ratio CC50/IC50: 5.8
Hepatitis B virus [3]
  IC50: 466 µM
Hepatitis B virus [4]
  IC50: 30.7 µM
Hepatitis B virus [6]
  IC50: 1170 µM

## C=C1CC[C@@H]2[C@](C)(COC(=O)c3cccnc3)[C@H](O)CC[C@@]2(C)[C@@H]1C/C=C1\C=COC1=O
[1]
  CC50: 2050 µM
[2]
  Ratio CC50/IC50: 126
Hepatitis B virus [3]
  IC50: > 1140 µM
Hepatitis B virus [4]
  IC50: 16.3 µM
Hepatitis B virus [6]
  IC50: > 974 µM

## C=C1CC[C@@H]2[C@](C)(COC(=O)c3cccnc3OC)[C@H](O)CC[C@@]2(C)[C@@H]1/C=C/C1=CCOC1=O
[1]
  CC50: 1340 µM
[7]
  Ratio CC50/IC50: 6.2
Hepatitis B virus [3]
  IC50: > 2310 µM
Hepatitis B virus [4]
  IC50: > 584 µM
Hepatitis B virus [6]
  IC50: 217 µM
